# Test results: the supplement of paper PMC10307832
# Assays:
# Assay in all cases: relative viability (nuclei count vs DMSO), 5 days (fraction); higher = more cells survive
# [1] = compound: C=CCc1cccc(/C=N/NC(=O)CN2CCN(Cc3ccccc3)CC2)c1O [PAC-1] + N=C(N)NC(=N)NCCc1ccccc1 [Phenformin] (partner 250 µM)
# Summary of the method: (§1)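 Nuclei were stained with Hoechst during a one-step fixation (final 0.05% Triton X-100, 1% formaldehyde, 1 ug/ml Hoechst) carried out 5 days after dosing, then counted on 4× images. The cells, lung cancer lines in 1536-well plates, had been dosed by pin tool the day after seeding with one drug alone or a fixed anchor-drug dose plus five library-drug doses (not always all listed) in √10 steps. Relative viability is the nuclei count in treated wells divided by that in vehicle wells, and each value is the median of duplicate plates.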
# [2] = compound: C=CC(=O)N1CCC[C@@H](n2nc(-c3ccc(Oc4ccccc4)cc3)c3c(N)ncnc32)C1 [Ibrutinib] + Cc1cc(Nc2cc(N3CCN(C)CC3)nc(Sc3ccc(NC(=O)C4CC4)cc3)n2)n[nH]1 [Tozasertib] (partner 0.1 µM)
# Summary of the method: as §1
# [3] = compound: C=CC(=O)N1CCC[C@@H](n2nc(-c3ccc(Oc4ccccc4)cc3)c3c(N)ncnc32)C1 [Ibrutinib] + O=C(CCCCCCC(=O)Nc1ccccc1)NO [Vorinostat] (partner 1 µM)
# Summary of the method: as §1
# [4] = compound: C=CC(=O)Nc1cc(-n2c(=O)ccc3cnc4ccc(-c5ccc(NS(C)(=O)=O)cc5)cc4c32)ccc1C [BMX-IN-1] + CC(=O)c1c(C)c2cnc(Nc3ccc(N4CCNCC4)cn3)nc2n(C2CCCC2)c1=O [Palbociclib] (partner 0.5 µM)
# Summary of the method: as §1
Cell Line,relative viability ([1]; first compound 0.02 µM),relative viability ([1]; first compound 0.06325 µM),relative viability ([1]; first compound 0.2 µM),relative viability ([1]; first compound 2 µM),relative viability ([2]; first compound 0.005 µM),relative viability ([2]; first compound 0.01581 µM),relative viability ([2]; first compound 0.05 µM),relative viability ([2]; first compound 0.1581 µM),relative viability ([2]; first compound 0.5 µM),relative viability ([3]; first compound 0.005 µM),relative viability ([3]; first compound 0.01581 µM),relative viability ([3]; first compound 0.05 µM),relative viability ([3]; first compound 0.1581 µM),relative viability ([3]; first compound 0.5 µM),relative viability ([4]; first compound 0.02 µM),relative viability ([4]; first compound 0.2 µM),relative viability ([4]; first compound 0.6325 µM),relative viability ([4]; first compound 2 µM)
NCI-H2009,0.473,0.481,0.451,0.484,0.737,0.778,0.77,0.788,0.831,0.728,0.705,0.764,0.759,0.742,0.182,0.212,0.207,0.254
NCI-H2023,0.427,0.404,0.405,0.397,0.388,0.303,0.324,0.394,0.324,0.565,0.6,0.48,0.918,0.49,0.48,0.389,0.386,0.381
NCI-H2085,0.747,0.757,0.723,0.815,0.853,0.628,0.623,0.855,0.697,0.85,0.708,0.74,0.62,0.695,0.473,0.438,0.484,0.46
NCI-H2087,0.398,0.42,0.344,0.377,0.303,0.206,0.262,,0.233,0.97,0.745,0.385,,0.538,0.214,0.229,0.252,0.257
NCI-H2126,0.515,0.524,0.517,0.513,0.701,0.811,0.792,0.818,0.755,0.454,0.748,0.644,0.725,0.56,0.379,0.345,0.363,0.322
NCI-H2170,0.426,0.356,0.422,0.384,0.676,0.748,0.519,0.63,0.23,0.703,0.656,0.396,0.831,0.181,0.426,0.421,0.447,0.373
NCI-H2228,0.303,0.303,0.306,0.318,0.282,,0.253,0.307,0.187,0.696,0.486,0.569,0.502,0.648,0.948,0.878,0.608,0.785
NCI-H2342,0.552,0.474,0.579,0.611,0.499,0.493,0.577,0.53,0.396,0.495,0.783,0.754,0.76,0.731,0.578,0.519,0.51,0.568
NCI-H2347,0.184,0.441,0.352,0.553,,0.643,0.739,0.532,0.548,0.59,0.546,0.566,0.493,0.53,0.443,0.406,0.458,0.393
